Drawing on BindingDB's records for PubMed 1362243 (National Institute of Mental Health, 1992), this text covers Ki for two compounds.

For the test, the target named is Somatostatin receptor type 4 (Rattus norvegicus, UniProt P30937).

Positions of bridges follow the written chain, without caps; N, C: chain ends. Non-standard residues stand in square brackets, D forms with d. Residues, ends and D or L forms follow the SMILES beside them. *: point of attachment. X1 = CC(O)[C@H](CO)N*

Chain of Somatostatin receptor type 4 (P30937 whole entry): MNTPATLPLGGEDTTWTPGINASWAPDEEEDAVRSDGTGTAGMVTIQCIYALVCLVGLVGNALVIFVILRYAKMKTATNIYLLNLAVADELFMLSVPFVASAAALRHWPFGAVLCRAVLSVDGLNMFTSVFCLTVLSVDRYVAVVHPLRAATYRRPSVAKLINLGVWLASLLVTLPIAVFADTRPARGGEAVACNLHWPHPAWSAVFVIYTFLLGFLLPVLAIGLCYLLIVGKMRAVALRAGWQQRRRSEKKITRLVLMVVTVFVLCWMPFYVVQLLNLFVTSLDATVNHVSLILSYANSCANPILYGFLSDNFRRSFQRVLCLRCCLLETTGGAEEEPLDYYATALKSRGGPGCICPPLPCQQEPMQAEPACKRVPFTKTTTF

Turning to `CC(O)[C@H](CO)NC(=O)[C@@H]1CSSC[C@H](NC(=O)[C@H](N)Cc2ccccc2)C(=O)N[C@@H](Cc2ccccc2)C(=O)N[C@H](Cc2c[nH]c3ccccc23)C(=O)N[C@@H](CCCCN)C(=O)N[C@@H]([C@@H](C)O)C(=O)N1` (some centres not stated) (H-[dF]CF[dW]KTC-X1; disulfide 2-7), the affinity, expressed as Ki, was 0.18 nM.

Regarding `CSCC[C@H](NC(=O)[C@H](C)NC(=O)[C@@H]1CCCN1C(=O)[C@H](CC(N)=O)NC(=O)[C@H](CO)NC(=O)[C@H](CC(N)=O)NC(=O)[C@H](C)NC(=O)[C@@H](N)CO)C(=O)N[C@@H](C)C(=O)N1CCC[C@H]1C(=O)N[C@@H](CCCNC(=N)N)C(=O)N[C@@H](CCC(=O)O)C(=O)N[C@@H](CCCNC(=N)N)C(=O)N[C@@H](CCCCN)C(=O)N[C@@H](C)C(=O)NCC(=O)N[C@H]1CSSC[C@@H](C(=O)O)NC(=O)[C@H](CO)NC(=O)[C@H]([C@@H](C)O)NC(=O)[C@H](Cc2ccccc2)NC(=O)[C@H]([C@@H](C)O)NC(=O)[C@H](CCCCN)NC(=O)[C@H](Cc2c[nH]c3ccccc23)NC(=O)[C@H](Cc2ccccc2)NC(=O)[C@H](Cc2ccccc2)NC(=O)[C@H](CC(N)=O)NC(=O)[C@H](CCCCN)NC1=O` [somatostatin-28], the Ki amounted to 0.08 nM.
